In brackets after ≈: the same amount, converted by molar mass.
Assays:
Type in all cases: cell-based
[1] = test system: Streptococcus pneumoniae (ATCC6305); assay: Microtitre plate assay, IC90 determination (SPN 6305); details: 90% inhibitory concentration for bacterial growth, 37° C., resazurin fluorescence; for IC90 SPN 6305: 24 hours; for IC90: Streptococcus pneumoniae, ATCC6305, 24 h
Description: (§1) The bacteria used in this study were grown overnight in flasks containing 100 ml Mueller-Hinton Broth (Becton Dickinson—cat. no. 275730) in sterile de-ionized water, with shaking, at 37° C. Stocks (0.5 ml/tube) were stored at −70° C. until use. Bacteria titrations were performed in microtiter plates and colony forming units (CFUs) were determined. In general, an inoculum level of approximately 100 CFUs was used for susceptibility testing.
(§2) Flat-bottom, sterile 96-well plastic microtiter plates were filled with 180 μl of sterile deionized water, supplemented with 0.25% BSA. Subsequently, stock solutions (7.8× final test concentration) of compounds were added in 45 μl volumes in column 2 Serial five-fold dilutions (45 μl in 180 μl) were made directly in the microtiter plates from column 2 to reach column 11. Untreated control samples with (column 1) and without (column 12) inoculum were included in each microtiter plate. Depending on the bacteria type, approximately 10 to 60 CFU per well of bacteria inoculum (100 TCID50), in a volume of 100 μl in 2.8× Mueller-Hinton broth medium, was added to the rows A to H, except column 12. The same volume of broth medium without inoculum was added to column 12 in row A to H. The cultures were incubated at 37° C. for 24 hours under a normal atmosphere (incubator with open air valve and continuous ventilation). At the end of incubation, one day after inoculation, the bacterial growth was quantitated fluorometrically. Therefore resazurin (0.6 mg/ml) was added in a volume of 20 μl to all wells 3 hours after inoculation, and the plates were re-incubated overnight. A change in colour from blue to pink indicated the growth of bacteria. The fluorescence was read in a computer-controlled fluorometer (Cytofluor Biosearch) at an excitation wavelength of 530 nm and an emission wavelength of 590 nm. The % growth inhibition achieved by the compounds was calculated according to standard methods. The IC90 (expressed in μg/ml) was defined as the 90% inhibitory concentration for bacterial growth.

[2] = test system: Staphylococcus aureus (ATCC29213); assay: Microtitre plate assay, IC90 determination (STA 29213); details: 90% inhibitory concentration for bacterial growth, 37° C., resazurin fluorescence; for IC90 STA 29213: 24 hours; for IC90: Staphylococcus aureus, ATCC29213, 24 h
Description: as §1, §2

[3] = test system: Pseudomonas aeruginosa (ATCC27853); assay: Microtitre plate assay, IC90 determination (PAE 27853); details: 90% inhibitory concentration for bacterial growth, 37° C., resazurin fluorescence; for IC90 PAE 27853: 24 hours; for IC90: Pseudomonas aeruginosa, ATCC27853, 24 h
Description: as §1, §2

[4] = test system: Enterococcus faecalis (ATCC29212); assay: Microtitre plate assay, IC90 determination (EFA 29212); details: 90% inhibitory concentration for bacterial growth, 37° C., resazurin fluorescence; for IC90 EFA 29212: 24 hours; for IC90: Enterococcus faecalis, ATCC29212, 24 h
Description: as §1, §2

[5] = test system: Streptococcus pyogens (ATCC8668); assay: Microtitre plate assay, IC90 determination (SPY 8668); details: 90% inhibitory concentration for bacterial growth, 37° C., resazurin fluorescence; for IC90 SPY 8668: 24 hours; for IC90: Streptococcus, ATCC8668, 24 h
Description: as §1, §2

IC90 SPN 6305 [1] [µg/mL]	IC90 STA 29213 [2] [µg/mL]	SMILES	also measured
0.3 (≈ 0.521 µM)	16.2 (≈ 28.1 µM)	COc1nc2ccc(Br)cc2cc1C(c1ccccc1)C(O)(CCc1ccc(C(C)C)cc1)CCN(C)C (stereo not drawn) [Compound 23]	
	7.1 (≈ 12.6 µM)	COc1ccc(C(c2cc3cc(Br)ccc3nc2OC)C(O)(CCc2ccccc2)CCN(C)C)cc1 (stereo not drawn) [Compound 73]	IC90 PAE 27853 [3]: 8.0 µg/mL (≈ 14.2 µM); IC90 [1]: 1.8 µg/mL (≈ 3.19 µM); IC90 EFA 29212 [4]: 8.9 µg/mL (≈ 15.8 µM); IC90 SPY 8668 [5]: 4.0 µg/mL (≈ 7.1 µM)
3.4 (≈ 7.02 µM)		COc1ccc2nc(OC)c(C(c3ccccc3)C(O)(CCc3ccccc3)CCN(C)C)cc2c1 (stereo not drawn) [Compound 3]	IC90 [3]: 9.7 µg/mL (≈ 20 µM); IC90 [4]: 9.7 µg/mL (≈ 20 µM); IC90 [5]: 9.7 µg/mL (≈ 20 µM); IC90 [2]: 12.2 µg/mL (≈ 25.2 µM)
4.1 (≈ 9.02 µM)	36.1 (≈ 79.4 µM)	COc1nc2ccccc2cc1C(c1ccccc1)C(O)(CCc1ccccc1)CCN(C)C (racemic) [Compound 13]	
2.1 (≈ 3.61 µM)	4.1 (≈ 7.05 µM)	COc1ccc(C(c2cc3cc(Br)ccc3nc2OC)C(O)(CCc2ccc(F)cc2)CCN(C)C)cc1 (stereo not drawn) [Compound 85]	
10.6 (≈ 20 µM)	53.1 (≈ 100 µM)	COc1nc2ccc(-c3ccccc3)cc2cc1C(c1ccccc1)C(O)(CCc1ccccc1)CCN(C)C (racemic) [Compound 60]	
0.5 (≈ 0.83 µM)	6.0 (≈ 9.96 µM)	COc1nc2ccc(Br)cc2cc1C(c1ccccc1)C(O)(CCc1ccc(Cl)c(Cl)c1)CCN(C)C (racemic) [Compound 57]	
	41.2 (≈ 70.8 µM)	COc1nc2ccc(Br)cc2cc1C(c1ccc(Cl)cc1)C(O)(CCc1ccc(C)cc1)CCN(C)C (stereo not drawn) [Compound 86]	IC90 [1]: 2.1 µg/mL (≈ 3.61 µM)
5.7 (≈ 10 µM)	9.0 (≈ 15.8 µM)	COc1nc2ccc(Br)cc2cc1C(c1ccccc1)C(O)(CCc1ccc(Cl)cc1)CCN(C)C (racemic) [Compound 56]	
0.3 (≈ 0.46 µM)		COc1nc2ccc(Br)cc2cc1C(c1ccc(Cl)cc1)C(O)(CCc1cccc(OC(F)(F)F)c1)CCN(C)C (stereo not drawn) [Compound 91]	IC90 [2]: 32.7 µg/mL (≈ 50.2 µM)
10.7 (≈ 19.9 µM)	42.6 (≈ 79.4 µM)	COc1nc2ccc(-c3cccs3)cc2cc1C(c1ccccc1)C(O)(CCc1ccccc1)CCN(C)C (racemic) [Compound 64]	
0.3 (≈ 0.654 µM)	1.5 (≈ 3.27 µM)	CNCCC(O)(CCc1ccc(F)cc1)C(c1ccccc1)c1cc2ccccc2nc1OC (stereo not drawn) [Compound 38]	

Continued, compound first:

SMILES	IC90 SPN 6305 [1] [µg/mL]	IC90 STA 29213 [2] [µg/mL]	also measured
COc1nc2ccc(Br)cc2cc1C(c1ccccc1)C(O)(CCc1ccccc1)CCN(C)C (stereo not drawn) [Compound 20]	1.1 (≈ 2.06 µM)		IC90 PAE 27853 [3]: 1.7 µg/mL (≈ 3.19 µM); IC90 EFA 29212 [4]: 1.7 µg/mL (≈ 3.19 µM); IC90 SPY 8668 [5]: 1.7 µg/mL (≈ 3.19 µM); IC90 [2]: 8.5 µg/mL (≈ 15.9 µM)
COc1nc2ccc(Br)cc2cc1C(c1ccccc1)C(O)(CCc1ccccc1Cl)CCN(C)C (racemic) [Compound 54]	2.3 (≈ 4.05 µM)	10.1 (≈ 17.8 µM)	IC90 PAE 27853 [3]: 2.0 µg/mL (≈ 3.52 µM); IC90 EFA 29212 [4]: 4.5 µg/mL (≈ 7.92 µM); IC90 SPY 8668 [5]: 2.0 µg/mL (≈ 3.52 µM)
COc1nc2ccc(Br)cc2cc1C(c1ccccc1)C(O)(CCc1cccc(F)c1)CCN(C)C (racemic) [Compound 47]	8.7 (≈ 15.8 µM)	43.8 (≈ 79.4 µM)	
CCOCCOCCOc1nc2ccc(Br)cc2cc1C(c1ccccc1)C(O)(CCc1ccccc1)CCN(C)C (stereo not drawn) [Compound 44]	4.5 (≈ 7.08 µM)	22.6 (≈ 35.6 µM)	IC90 PAE 27853 [3]: 4.5 µg/mL (≈ 7.08 µM); IC90 EFA 29212 [4]: 10.1 µg/mL (≈ 15.9 µM); IC90 SPY 8668 [5]: 8.0 µg/mL (≈ 12.6 µM)
COc1nc2ccc(Br)cc2cc1C(c1ccccc1)C(O)(CCN(C)C)Cc1cccc2ccccc12 (stereo not drawn) [Compound 42]	2.3 (≈ 4.04 µM)	9.0 (≈ 15.8 µM)	IC90 [3]: 10.1 µg/mL (≈ 17.7 µM); IC90 [4]: 22.7 µg/mL (≈ 39.9 µM); IC90 [5]: 4.5 µg/mL (≈ 7.9 µM)
COc1nc2ccc(CO)cc2cc1C(c1ccccc1)C(O)(CCc1ccccc1)CCN(C)C (stereo not drawn) [Compound 58]			IC90 [1]: 8.6 µg/mL (≈ 17.7 µM); IC90 [2]: 8.6 µg/mL (≈ 17.7 µM)
COc1nc2ccc(Br)cc2cc1C(c1ccccc1)C(O)(CCc1ccc(C(F)(F)F)cc1)CCN(C)C (racemic) [Compound 46]	0.5 (≈ 0.831 µM)	1.9 (≈ 3.16 µM)	IC90 PAE 27853 [3]: 1.9 µg/mL (≈ 3.16 µM); IC90 EFA 29212 [4]: 1.9 µg/mL (≈ 3.16 µM); IC90 SPY 8668 [5]: 1.9 µg/mL (≈ 3.16 µM)
COc1nc2ccc(Br)cc2cc1C(c1ccccc1)C(O)(CCc1ccc(F)cc1)CCN(C)C (stereo not drawn) [Compound 26]	2.0 (≈ 3.63 µM)	4.4 (≈ 7.98 µM)	IC90 PAE 27853 [3]: 1.7 µg/mL (≈ 3.08 µM); IC90 EFA 29212 [4]: 1.7 µg/mL (≈ 3.08 µM); IC90 SPY 8668 [5]: 1.7 µg/mL (≈ 3.08 µM)
COc1nc2ccc(-c3ccco3)cc2cc1C(c1ccccc1)C(O)(CCc1ccccc1)CCN(C)C (racemic) [Compound 62]	10.4 (≈ 20 µM)	8.3 (≈ 15.9 µM)	
COc1nc2ccc(-c3ccccc3)cc2cc1C(c1ccccc1)C(O)(CCc1ccccc1)CCN(C)C (racemic) [Compound 59]	10.6 (≈ 20 µM)	42.2 (≈ 79.5 µM)	
CNCCC(O)(CCc1ccc(F)cc1)C(c1ccccc1)c1cc2cc(Br)ccc2nc1OC (stereo not drawn) [Compound 40]	0.3 (≈ 0.558 µM)	1.5 (≈ 2.79 µM)	
COc1nc2ccc(Br)cc2cc1C(c1ccc(Cl)cc1)C(O)(CCc1cccc(OC(F)(F)F)c1)CCN(C)C (stereo not drawn) [Compound 90]	2.6 (≈ 3.99 µM)	16.4 (≈ 25.2 µM)	
COc1nc2ccc(Br)cc2cc1C(c1ccc(Cl)cc1)C(O)(CCc1ccc(Cl)cc1)CCN(C)C (stereo not drawn) [Compound 76]	0.4 (≈ 0.664 µM)		IC90 [2]: 2.1 µg/mL (≈ 3.49 µM)
COc1ccc2nc(OC)c(C(c3ccccc3)C(O)(CCc3ccccc3)CCN(C)C)cc2c1 (stereo not drawn) [Compound 4]	9.7 (≈ 20 µM)	10.9 (≈ 22.5 µM)	
CSc1nc2ccc(C)cc2cc1C(c1ccccc1)C(O)(CCc1ccccc1)CCN(C)C (stereo not drawn) [Compound 30]	1.9 (≈ 3.92 µM)	7.7 (≈ 15.9 µM)	
COc1nc2ccc(-c3cccnc3)cc2cc1C(c1ccccc1)C(O)(CCc1ccccc1)CCN(C)C (racemic) [Compound 61]	7.5 (≈ 14.1 µM)		
COc1nc2ccc(Br)cc2cc1C(c1ccccc1)C(O)(CCc1ccc(F)cc1)CCN(C)C (stereo not drawn) [Compound 27]	2.0 (≈ 3.63 µM)	1.7 (≈ 3.08 µM)	
COc1nc2ccc(Br)cc2cc1C(c1ccccc1)C(O)(CCc1ccc(Cl)cc1)CCN(C)C (racemic) [Compound 55]	0.3 (≈ 0.528 µM)	1.8 (≈ 3.17 µM)	
COc1nc2ccc(Br)cc2cc1C(c1ccccc1)C(O)(CCc1ccc(C(C)C)cc1)CCN(C)C (stereo not drawn) [Compound 24]		2.6 (≈ 4.52 µM)	IC90 [1]: 0.3 µg/mL (≈ 0.521 µM)
COc1nc2ccc(Br)cc2cc1C(c1ccc(Cl)cc1)C(O)(CCc1ccc(Cl)cc1)CCN(C)C (stereo not drawn) [Compound 75]	3.4 (≈ 5.64 µM)	3.0 (≈ 4.98 µM)	
COc1nc2ccc(Br)cc2cc1C(c1ccccc1)C(O)(CCc1ccccc1)CCN(C)C (stereo not drawn) [Compound 17]	4.8 (≈ 9 µM)	8.5 (≈ 15.9 µM)	
COc1nc2ccc(Br)cc2cc1C(c1ccccc1)C(O)(CCc1ccc(F)cc1)CCN(C)C (stereo not drawn) [Compound 25]	1.7 (≈ 3.08 µM)	7.8 (≈ 14.1 µM)	
COc1nc2ccc(Br)cc2cc1C(c1ccc(Cl)cc1)C(O)(CCc1ccc(C(F)(F)F)cc1)CCN(C)C (stereo not drawn) [Compound 89]			IC90 [1]: 2.3 µg/mL (≈ 3.62 µM); IC90 [2]: 22.6 µg/mL (≈ 35.5 µM)

From patent US20130030017A1, “QUINOLINE DERIVATIVES AS ANTIBACTERIAL AGENTS” (priority 2005, published 2013)
